Source: US6046186A, “Estrone sulfamate inhibitors of estrone sulfatase, and associated pharmaceutical compositions and methods of use” (SRI International, priority 1997, dated 2000)
Like-named read-outs stand apart in the source and are kept apart here.

Key:
Estrone Sulfatase = biological target: T1, Estrone Sulfatase (Homo sapiens, UniProt P08842); assay: Effects of Inhibitors on Estrone Sulfatase Activity in MCF-7 Cells; assay type: cell-based
T1 construct: endogenous in cells; host or cells: MCF-7 human breast cancer cells (American Type Culture Collection)
T1 sequence (P08842 22-583): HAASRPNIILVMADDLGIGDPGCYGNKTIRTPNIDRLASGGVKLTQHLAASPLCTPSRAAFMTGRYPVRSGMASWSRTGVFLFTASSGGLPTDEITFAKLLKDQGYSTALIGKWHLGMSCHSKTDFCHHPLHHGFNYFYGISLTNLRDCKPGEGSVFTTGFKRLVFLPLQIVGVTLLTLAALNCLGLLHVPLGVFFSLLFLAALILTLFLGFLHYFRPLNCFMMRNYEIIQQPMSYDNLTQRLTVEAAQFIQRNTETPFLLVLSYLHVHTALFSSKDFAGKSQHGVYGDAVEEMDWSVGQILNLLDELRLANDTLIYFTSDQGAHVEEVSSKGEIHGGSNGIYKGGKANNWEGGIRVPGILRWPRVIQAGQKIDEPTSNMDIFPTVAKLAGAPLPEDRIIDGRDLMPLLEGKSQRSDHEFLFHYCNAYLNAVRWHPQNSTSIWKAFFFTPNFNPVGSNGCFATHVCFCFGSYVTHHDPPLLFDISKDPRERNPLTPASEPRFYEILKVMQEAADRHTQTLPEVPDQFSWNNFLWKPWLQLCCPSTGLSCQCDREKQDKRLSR
From the text: A. Effects of Inhibitors on Estrone Sulfatase Activity in MCF-7 Cells
Reagents: MCF-7 human breast cancer cell line was supplied by the American Type Culture Collection, Rockville, MD. Eagle's minimum essential medium (MEM) and fetal calf serum (FCS) were purchased from Sigma Chemical Company, St. Louis, Mo. [4-^14 C]Estrone, [6,7-^3 H]estradiol and [6,7-^3 H](N)estrone sulfate were obtained from New England Nuclear Research Products, Boston, Mass.
Procedure: The method of Duncan et al., Cancer Res. 53:298-303 (1993) was employed. MCF-7 cells were seeded in 60 mm×15 mm culture dishes at 1×10^5 cells/dish and maintained in 4.0 ml of MEM containing 2 mM glutamine and 5% FCS. The cells were incubated at 37° C. in an atmosphere of 5% CO2 /95% air and 100% humidity, with the medium changed every third day. When the cells reached 80% confluency, the intact monolayers were washed once with Earl's balanced salt solution and incubated in 4.0 ml of serum and phenol re-free MEM containing either the substrate (^3 H-estrone sulfate, 7 pmol, 9×10^5 dpm) and inhibitor dissolved in ethanol, or ethanol alone. The fmal ethanol concentration was always below 1%. The incubation continued under the regular conditions for 24 h. At the end of 24 h, 2.0 ml of medium was transferred into separate tubes containing 7×10^3 dpm of ^14 C-estrone. The mixture was vortexed vigorously for 60 s with 5 ml of toluene. After phase separation, 2.0 ml of the organic phase was transferred into a counting vial for scintillation counting. The amount of estrone sulfate hydrolyzed was calculated on the basis of ^3 H counts obtained, with the added ^14 C-estrone counts used to correct for recovery through the extraction procedure.
The cells remaining in each culture dish were washed once with saline and then scraped with 1.0 ml of 0.5 N NaOH into 10×75 mm tubes. The cell pellets in each tube was incubated at 50° C. for 20 min to ensure that digestion was complete and all proteins had became soluble. An aliquot was then taken for protein determination by Lowry's method (Lowry et al., J. Biol. Chem. 193:265-275 (1951)).
The percentage of inhibition was determined by evaluating the quantity of estrone sulfate hydrolyzed with the inhibitor relative to that without the inhibitor.
As a general practice, all available inhibitors were first tested at 100 μM; the ones showing inhibitory effects at that concentration were tested again at various concentrations to obtain the IC50 values.

uterus = assay: Uterotrophic assay (estrogenic activity from uterine weights); assay type: in vivo, Sprague Dawley rats; set-up: scale not given here; conditions: female rats, test compound alone once daily for 7 days, s.c. or oral gavage; uterine weight vs vehicle control
From the text: B. Uterotrophic and antiuterotrophic assays
Sprague Dawley rates are obtained from Simmonsen Laboratories, Gilroy, Calif. Estradiol benzoate may be purchased from Sigma Chemical Co., St. Louis, Mo.
The procedure of Wakeling et al., Endocrinology 99:447453 (1983) is followed. Female Sprague Dawley rats weighing 40-50 grams are used for the experiment. In general, animals are quarantined for 3 days after arrival at the experimental site.
Rats are initially weighed and randomly divided into groups with 5 animals in each group. For the uterotrophic assay, animals are dosed once daily with various doses of test compounds in 0.1 or 1.0 ml of sterile saline via subcutaneous injection or oral gavage, respectively. For the antiuterotrophic assay, animals are dosed once daily with the same doses indicated above plus 0.5 μg/rat of estradiol benzoate alone.
The animals are treated for 7 days. On day 8, animals are weighed and then sacrificed. The uterus of each animal is removed immediately after death and weighed; fat materials are trimmed off prior to weighing.
A comparison of uterine weights from the groups receiving test compound alone with those of the vehicle control group gives the estrogenic activity. Antiestrogenic activity is obtained by comparing the uterine weights from the groups receiving test compound plus estradiol with those of the estradiol control group.

[1] = intact MCF-7 human breast cancer cells, 3H-estrone sulfate substrate, 24 h, 37° C., read-out: Estrone Sulfatase Inhibitory Activity IC50

SMILES | IC50 (Estrone Sulfatase; [1]) [nM] | Estrogenic Activity (uterus) | IC50 (Estrone Sulfatase) [nM]
C#CC1=CC[C@H]2[C@@H]3CCc4cc(OS(N)(=O)=O)ccc4[C@H]3CC[C@]12C [Compound 5, 19-Norpregna-1,3,5(10),16-tetraen-20-yne-3-O-sulfamate] | 0.25 | 0.40 | –
CN(C)c1c(OS(N)(=O)=O)ccc2c1CC[C@@H]1[C@@H]2CC[C@]2(C)C(=O)CC[C@@H]12 [Compound 88, 4-Dimethylaminoestra-1,3,5(10)-trien-17-one-3-O-sulfamate] | 515 | 0 | –
COc1cc2c(cc1OS(N)(=O)=O)CC[C@@H]1[C@@H]2CC[C@]2(C)C(=O)CC[C@@H]12 [Compound 67, 2-Methoxyestra-1,3,5(10)-trien-17-one-3-O-sulfamate] | – | 0 | 0.016
CC12CC(=O)C3=Cc4ccc(OS(N)(=O)=O)cc4CCC3C1CCC2=O (stereo not drawn) [Compound 99, β-Homo-9-(10-19)-abeoestra-1,3,5(10),9(19)-tetraen-11,17-dione-3-O-sulfamate] | 26 | 0 | –
CC(=O)C1=CC[C@H]2[C@@H]3CCc4cc(OS(N)(=O)=O)ccc4[C@H]3CC[C@]12C [Compound 7, 19-Norpregna-1,3,5(10),16-tetraen-20-one-3-O-sulfamate] | 0.021 | 0.66 | –
CCC/C=C1/CC[C@H]2[C@@H]3CCc4cc(OS(N)(=O)=O)ccc4[C@H]3CC[C@]12C [Compound 17, [17(20)Z]-19,21-Dinorchola-1,3,5(10)17(20)-tetraene-3-O-sulfamate] | 0.011 | 0.55 | –
CN(C)CCCO[C@H]1CC[C@H]2[C@@H]3CCc4cc(OS(N)(=O)=O)ccc4[C@H]3CC[C@]12C [Compound 47, 17β-(3'-N,N-Dimethylaminopropoxy)estra-1,3,5(10)-triene-3-O-sulfamate] | 23 | 0.27 | –
CC/C=C1\CC[C@H]2[C@@H]3CCc4cc(OS(N)(=O)=O)ccc4[C@H]3CC[C@]12C [Compound 28, [17(20)E]-Propylideneestra-1,3,5(10)-triene-3-O-sulfamate] | 0.027 | 0.20 | –
C/C=C1/CC[C@H]2[C@@H]3CCc4cc(OS(N)(=O)=O)c(OC)cc4[C@H]3CC[C@]12C [Compound 69, 2-Methoxy-[17(20)Z]-19-norpregna-1,3,5(10),17(20)-tetraene-3-O-sulfamate] | 2.5 | 0 | –
CC/C=C1/CC[C@H]2[C@@H]3CCc4cc(OS(N)(=O)=O)ccc4[C@H]3CC[C@]12C [Compound 15, [17(20)Z]-Propylideneestra-1,3,5(10)-triene-3-O-sulfamate] | 0.038 | 0.30 | –
CC(=O)O[C@H]1CC[C@H]2[C@@H]3CCc4cc(OS(N)(=O)=O)c(C#N)cc4[C@H]3CC[C@]12C [Compound 59, 2-Cyanoestra-1,3,5(10)-trien-17β-ol-3-O-sulfamate 17β-O-acetate] | 0.3 | 0 | –
CN(C)Cc1cc2c(cc1OS(N)(=O)=O)CC[C@@H]1[C@@H]2CC[C@]2(C)C(=O)CC[C@@H]12 [Compound 73, 2-Dimethylaminomethylestra-1,3,5(10)-trien-17-one-3-O-sulfamate] | > 1000 | 0 | –
CN(C)c1cc2c(cc1OS(N)(=O)=O)CC[C@@H]1[C@@H]2CC[C@]2(C)C(=O)CC[C@@H]12 [Compound 83, 2-Dimethylaminoestra-1,3,5(10)-trien-17-one-3-O-sulfamate] | 270 | 0 | –
CCOC(=O)/C=C1\CC[C@H]2[C@@H]3CCc4cc(OS(N)(=O)=O)ccc4[C@H]3CC[C@]12C [Compound 34, Ethyl 3-Sulfamoyloxy-[17(20)E]-19-norpregna-1,3,5(10),17(20)-tetraen-21-oate] | 0.27 | 0 | –
COC(=O)c1cc2c(cc1OS(N)(=O)=O)CC[C@@H]1[C@@H]2CC[C@]2(C)C(=O)CC[C@@H]12 [Compound 65, 2-Methoxycarbonylestra-1,3,5(10)-trien-17-one-3-O-sulfamate] | – | 0 | –
